Results taken from patent US6274715A, “Tricyclic erythromycin derivatives” (priority 1997, dated 2001).
Values after ≈ are worked out from the molar mass of the structure shown. Where two headings read alike, the source gives them in different places.

Tests used:
Format in all cases: cell-based
[1] = test system: PSEUDOMONAS AERUGINOSA K799/61; assay: In vitro antibacterial activity, MIC, BHI agar dilution
[2] = test system: STAPHYLOCOCCUS AUREUS NCTC10649M; assay: as above; conditions: S. aureus NCTC10649M, unit assumed
[3] = test system: STAPHYLOCOCCUS AUREUS CMX 642A; assay: as above; conditions: S. aureus CMX 642A, unit assumed
ESCHERICHIA COLI JUHL = conditions: E. coli JUHL, BHI agar, unit assumed
[4] = test system: STAPHYLOCOCCUS EPIDERMIDIS 3519; conditions: S. epidermidis 3519, BHI agar, unit assumed
[5] = test system: STAPHYLOCOCCUS AUREUS ATCC 6538P; assay: In vitro antibacterial activity, MIC, BHI agar dilution; conditions: S. aureus ATCC 6538P, 35-37° C., 20 to 24 hours, listed as Ex 35, unit assumed
PSEUDOMONAS CEPACIA 296I = assay: as above; conditions: P. cepacia 296I, unit assumed
[6] = test system: PSEUDOMONAS AERUGINOSA BMH10; assay: as above
[7] = test system: KLEBSIELLA PNEUMONIAE ATCC 8045; assay: as above; conditions: K. pneumoniae ATCC 8045, unit assumed
[8] = test system: PSEUDOMONAS AERUGINOSA DPHD-2862; assay: as above; conditions: P. aeruginosa DPHD-2862, unit assumed
[9] = test system: STAPHYLOCOCCUS AUREUS A-5278; assay: as above; conditions: S. aureus A-5278, unit assumed
[10] = test system: STREPTOCOCCUS BOVIS A-5169; assay: as above; conditions: S. bovis A-5169, unit assumed
[11] = test system: PSEUDOMONAS AERUGINOSA DPHD-5263; assay: as above; conditions: P. aeruginosa DPHD-5263, unit assumed
[12] = test system: PSEUDOMONAS AERUGINOSA 5007; assay: as above; conditions: P. aeruginosa 5007, unit assumed
STR[…] 508 = assay: as above; conditions: S. agalactiae CMX 508, unit assumed
Method: (§1) Representative compounds of the present invention were assayed in vitro for antibacterial activity as follows: Twelve petri dishes containing successive aqueous dilutions of the test compound mixed with 10 mL of sterilized Brain Heart Infusion (BHI) agar (Difco 0418-01-5) were prepared. Each plate was inoculated with 1:100 (or 1:10 for slow-growing strains, such as Micrococcus and Streptococcus) dilutions of up to 32 different microorganisms, using a Steers replicator block. The inoculated plates were incubated at 35-37° C. for 20 to 24 hours. In addition, a control plate, using BHI agar containing no test compound, was prepared and incubated at the beginning and end of each test.
(§2) An additional plate containing a compound having known susceptibility patterns for the organisms being tested and belonging to the same antibiotic class as the test compound was also prepared and incubated as a further control, as well as to provide test-to-test comparability. Erythromycin A was used for this purpose.
(§3) After incubation, each plate was visually inspected. The minimum inhibitory concentration (MIC) was defmed as the lowest concentration of drug yielding no growth, a slight haze, or sparsely isolated colonies on the inoculum spot as compared to the growth control.

M[…] ATCC 9341 = assay: as above; conditions: M. luteus ATCC 9341, unit assumed
Method: as §1, §2, §3

EN[…] ATCC 8043 = assay: as above; conditions: E. faecium ATCC 8043, unit assumed
Method: as §1, §2, §3

[13] = test system: STAPHYLOCOCCUS AUREUS 1775; assay: as above; conditions: S. aureus 1775, unit assumed
ESCHERICHIA COLI KNK 437 = conditions: E. coli KNK 437; BHI agar; unit assumed
ESCHERICHIA COLI H560 = assay: In vitro antibacterial activity, MIC, BHI agar dilution
[14] = test system: MYCOBACTERIUM SMEGMATIS ATCC 114; assay: as above; conditions: M. smegmatis ATCC 114, unit assumed
CANDIDA ALBICANS CCH 442 = assay: as above; conditions: C. albicans CCH 442, unit assumed
[15] = test system: PROVIDENCIA STUARTII CMX 640; conditions: P. stuartii CMX 640; BHI agar; unit assumed
[16] = test system: PSEUDOMONAS AERUGINOSA K799/WT; assay: In vitro antibacterial activity, MIC, BHI agar dilution; conditions: P. aeruginosa K799/WT
[17] = test system: STREPTOCOCCUS PYOGENES 930; assay: as above; conditions: S. pyogenes 930, unit assumed
[18] = test system: STREPTOCOCCUS PYOGENES PIU 2548; assay: as above
[19] = test system: ENTEROBACTER AEROGENES ATCC 13048; assay: as above
ESCHERICHIA COLI SS = assay: as above; conditions: E. coli SS, unit assumed
[20] = test system: STREPTOCOCCUS PYOGENES EES61; assay: as above; conditions: S. pyogenes EES61, unit assumed
[21] = test system: STAPHYLOCOCCUS AUREUS CMX 553; assay: as above; conditions: S. aureus CMX 553, unit assumed
M[…] ATCC 4698 = assay: as above; conditions: M. luteus ATCC 4698, unit assumed
Method: as §1, §2, §3

ESCHERICHIA COLI DC-2 = assay: as above; conditions: E. coli DC-2, unit assumed

SMILES: CCC1OC(=O)C(C)C(=O)C(C)C(OC2OC(C)CC(N(C)C)C2O)C(C)(OC)CC(C)C2=NCC(CCc3ccccc3)N3C(=O)OC1(C)C3C2C (stereo not drawn) [Example 35]
- MIC ([1]; P. aeruginosa K799/61, listed as Ex 35, unit assumed): 3.1 µg/mL (≈ 4.18 µM)
- MIC [2]: 0.78 µg/mL (≈ 1.05 µM)
- MIC [3]: 0.78 µg/mL (≈ 1.05 µM)
- MIC (ESCHERICHIA COLI JUHL; listed as Ex 35): > 100 µg/mL
- MIC ([4]; listed as Ex 35): 0.39 µg/mL (≈ 0.526 µM)
- MIC [5]: 0.39 µg/mL (≈ 0.526 µM)
- MIC (PSEUDOMONAS CEPACIA 296I): 100 µg/mL (≈ 135 µM)
- MIC ([6]; P. aeruginosa BMH10, listed as Ex 35, unit assumed): > 100 µg/mL
- MIC [7]: > 100 µg/mL
- MIC [8]: > 100 µg/mL
- MIC [9]: > 100 µg/mL
- MIC [10]: 0.01 µg/mL (≈ 0.0135 µM)
- MIC [11]: > 100 µg/mL
- MIC [12]: > 100 µg/mL
- MIC (STR[…] 508): 0.02 µg/mL (≈ 0.027 µM)
- MIC (M[…] ATCC 9341): 0.2 µg/mL (≈ 0.27 µM)
- MIC (EN[…] ATCC 8043): 0.2 µg/mL (≈ 0.27 µM)
- MIC [13]: > 100 µg/mL
- MIC (ESCHERICHIA COLI KNK 437): 100 µg/mL (≈ 135 µM)
- MIC (ESCHERICHIA COLI H560; E. coli H560, listed as Ex 35, unit assumed): 50 µg/mL (≈ 67.4 µM)
- MIC [14]: 0.39 µg/mL (≈ 0.526 µM)
- MIC (CANDIDA ALBICANS CCH 442): > 100 µg/mL
- MIC [15]: > 100 µg/mL
- MIC ([16]; listed as Ex 35, unit assumed): > 100 µg/mL
- MIC [17]: 50 µg/mL (≈ 67.4 µM)
- MIC ([18]; S. pyogenes PIU 2548, listed as Ex 35, unit assumed): 0.39 µg/mL (≈ 0.526 µM)
- MIC ([19]; E. aerogenes ATCC 13048, listed as Ex 35, unit assumed): 100 µg/mL (≈ 135 µM)

SMILES: CC[C@H]1OC(=O)[C@H](C)C(=O)[C@H](C)[C@@H](O[C@@H]2O[C@H](C)C[C@H](N(C)C)[C@H]2O)[C@](C)(OC)C[C@@H](C)C2=NC3CN(CC)CC3N3C(=O)O[C@@]1(C)[C@H]3[C@H]2C (stereo partly drawn) [Example 115]
- MIC (ESCHERICHIA COLI SS): 0.39 µg/mL (≈ 0.552 µM)
- MIC ([1]; P. aeruginosa K799/61, unit assumed): 0.78 µg/mL (≈ 1.1 µM)
- MIC [2]: 0.78 µg/mL (≈ 1.1 µM)
- MIC [3]: 1.56 µg/mL (≈ 2.21 µM)
- MIC (ESCHERICHIA COLI JUHL): > 100 µg/mL
- MIC [20]: 0.05 µg/mL (≈ 0.0707 µM)
- MIC [4]: 1.56 µg/mL (≈ 2.21 µM)
- MIC (PSEUDOMONAS CEPACIA 296I): > 100 µg/mL
- MIC ([6]; P. aeruginosa BMH10, unit assumed): > 100 µg/mL
- MIC [8]: > 100 µg/mL
- MIC [21]: 1.56 µg/mL (≈ 2.21 µM)
- MIC [9]: > 100 µg/mL
- MIC [10]: ≤ 0.005 µg/mL
- MIC [11]: > 100 µg/mL
- MIC [12]: > 100 µg/mL
- MIC (M[…] ATCC 4698): 0.39 µg/mL (≈ 0.552 µM)
- MIC (STR[…] 508): 0.05 µg/mL (≈ 0.0707 µM)
- MIC (M[…] ATCC 9341): 0.1 µg/mL (≈ 0.141 µM)
- MIC (EN[…] ATCC 8043): 0.1 µg/mL (≈ 0.141 µM)
- MIC [13]: > 100 µg/mL
- MIC (ESCHERICHIA COLI KNK 437): 25 µg/mL (≈ 35.4 µM)
- MIC (ESCHERICHIA COLI H560; E. coli H560, unit assumed): 12.5 µg/mL (≈ 17.7 µM)
- MIC [14]: 12.5 µg/mL (≈ 17.7 µM)
- MIC (CANDIDA ALBICANS CCH 442): > 100 µg/mL
- MIC [15]: > 100 µg/mL
- MIC ([16]; unit assumed): > 100 µg/mL
- MIC [17]: > 100 µg/mL
- MIC ([18]; S. pyogenes PIU 2548, unit assumed): 0.78 µg/mL (≈ 1.1 µM)
- MIC ([19]; E. aerogenes ATCC 13048, unit assumed): 50 µg/mL (≈ 70.7 µM)
- MIC (ESCHERICHIA COLI DC-2): 50 µg/mL (≈ 70.7 µM)
